Values after ≈ are worked out from the molar mass of the structure shown. Read-outs that look alike come from different tables or passages of the source. Where only a bound is given, the exact number is not on record here.

The test system of assay [1] is A. baumannii NCTC 13301. Nature of the assay: MIC against A. baumannii NCTC 13301. The class given is cell-based.
Assay [2] deals with A. baumannii NCTC 13303. The assay is described as follows: MIC against A. baumannii NCTC 13303. The class given is cell-based.
The test system of assay [3] is A. baumannii strains (NCTC 13301, NCTC 13303, SL46). Nature of the assay: Murine peritonitis model, summary over the three A. baumannii strains. The class given is in vivo. The conditions noted are these: supra-therapeutic doses, 6.25 mg/kg administered as two doses.
Assay [4] has as its system A. baumannii SL04. Nature of the assay: MIC against clinical isolate A. baumannii SL04. The class given is cell-based.
Assay [5] has as its system TEM-1 (donor) and CTX-M-15 (recipient). The conditions noted are these: cited from earlier work.
In assay [6] the target is PDC-3 (Pseudomonas aeruginosa, UniProt P24735, T105A). The class given is biochemical.
For assay [7], the target named is OXA-23 (Acinetobacter baumannii, UniProt Q9L4P2). Nature of the assay: Steady-state inhibitor kinetics. The class given is biochemical, A. baumannii.
The test system of assay [8] is KPC-2 (donor) and TEM-1 (recipient). The assay is described as follows: Acyl-transfer ESI-MS, KPC-2 donor to TEM-1 recipient. It counts as biochemical. Particulars: equimolar KPC-2:DBO preincubated 1 min, then equimolar TEM-1.
The target in assay [9] is OXA-24/40 (Acinetobacter baumannii, UniProt Q8RLA6). The assay is described as follows: biochemical. Details: species or system A. baumannii.
The test system of assay [10] is Enterobacteriaceae that expressed blaOXA-48 or blaOXA-48 mutants. The class given is cell-based. Particulars: for MIC: Escherichia coli, E. coli Jefferson 17,75 OXA-48, agent alone.
Assay [11] deals with ADC-7 (Acinetobacter baumannii, UniProt Q6DRA1). The assay is described as follows: Steady-state inhibitor kinetics. The conditions noted are these: for lower Ki app values compared to those of avibactam and relebactam: ADC-7. The class given is biochemical.
Assay [12] concerns the target T1, KPC-2 (Klebsiella pneumoniae, UniProt Q9F663). Nature of the assay: biochemical.
The target of assay [13] is T1, KPC-2. Particulars: at 15 min; cited from earlier work.
For assay [14], the system named is Escherichia coli DH10B (control). Nature of the assay: MIC, broth microdilution, Escherichia coli DH10B. The class given is cell-based. In general terms: Broth dilution looks for growth in wells or tubes with falling amounts of substance.
The test system of assay [15] is A. baumannii ΔblaADC with pWH1266 blaOXA-23. Nature of the assay: MIC, broth microdilution, isogenic A. baumannii ΔblaADC with pWH1266 blaOXA-23. Particulars: Acinetobacter baumannii, β-lactam alone; A. baumannii ΔblaADC pWH1266 blaOXA-23. The class given is cell-based.
In assay [16] the test system is E. coli DH10B expressing a single β-lactamase. It counts as cell-based. Particulars: Escherichia coli, agent alone.
Assay [17] relates to A. baumannii ΔblaADC with pWH1266 blaOXA-24/40. The class given is cell-based. Particulars: Acinetobacter baumannii, β-lactam alone; A. baumannii ΔblaADC pWH1266 blaOXA-24.
The subject of assay [18] is A. baumannii AADC. The assay is described as follows: MIC, broth microdilution, A. baumannii ΔblaADC parent strain. The conditions noted are these: Acinetobacter baumannii. It counts as cell-based.
The test system of assay [19] is E. coli DH10B with pBR322-catI-blaKPC-2. The assay is described as follows: MIC, broth microdilution, isogenic E. coli DH10B with pBR322-catI-blaKPC-2. The conditions noted are these: Escherichia coli, β-lactam alone; E. coli DH10B pBR322-catI-blaKPC-2. The class given is cell-based.
Assay [20] relates to A. baumannii SL46. Nature of the assay: MIC against A. baumannii SL46. It counts as cell-based. The conditions noted are these: Acinetobacter baumannii.
Assay [21] has as its target CMY-2. The conditions noted are these: cited from earlier work.
Where [22] appears, read: Acinetobacter baumannii, NCTC13301.
The mark [23] stands for this setting: Acinetobacter baumannii, NCTC13303.
Where [24] appears, read: E. coli DH10B pBC SIC (−) KPC-2.
Setting [25] is: E. coli DHIOB pBC SIC (−) PDC-3.

The MIC is the least concentration at which growth counts as inhibited. Take `CN(C)c1cc(NC(=O)CNC(C)(C)C)c(O)c2c1C[C@H]1C[C@H]3[C@H](N(C)C)C(O)=C(C(N)=O)C(=O)[C@@]3(O)C(O)=C1C2=O` [tigecycline]: the MIC in assay [1] (setting [22]) and in assay [2] (setting [23]) was 1 µg/mL (≈ 1.71 µM) in each case. The “protection of infected mice” value in [3] was “failed to protect infected mice”.
Take colistin: the minimal inhibitory concentration (MIC) in assay [1] (A. baumannii NCTC 13301, 3 at a fixed 8 μg/mL, cefepime-2 at 1:1 ratio) amounted to 1 µg/mL; in [2] (A. baumannii NCTC 13303, 3 at a fixed 8 μg/mL, cefepime-2 at 1:1 ratio), 0.5 µg/mL; in assay [4] (A. baumannii SL04 carrying blaOXA-23 and blaOXA-51), 2 µg/mL.
`NC(=O)[C@@H]1CC[C@@H]2CN1C(=O)N2OS(=O)(=O)O` [avibactam]: the “time of maximum transfer from TEM-1 to CTX-M-15” value in assay [5] is recorded as 30 min.
By Ki is commonly meant the equilibrium dissociation constant of an inhibitor or competing ligand from its target. Take `O=C(NNC(=O)[C@@H]1CC[C@@H]2CN1C(=O)N2OS(=O)(=O)O)[C@@H]1CCCNC1` [Compound 2, (2S,5R)-6-Sulfooxy-7-oxo-2-[((3R)-piperidine-3-carbonyl)hydrazinocarbonyl]-1,6-diazabicyclo[3.2.1]octane]: the “lower Ki app values compared to those of avibactam and relebactam” value in assay [6] is on record as 18–25 fold; in assay [11], 3–8 fold. Moreover, the Ki in [7] and in assay [9] was greater than 100 µM throughout. For the same compound, the “time required for transfer from KPC-2 to TEM-1” value in [8] amounted to 5 min. For the same compound, the MIC is greater than 16 µg/mL in assay [10] and no less than 512 µg/mL in assay [4] (Acinetobacter baumannii, SL04).
As a reminder, the Kd is a measure of binding affinity in units of concentration. As to `N#C[C@@H]1CC[C@@H]2CN1C(=O)N2OS(=O)(=O)[O-].[Na+]` [Compound 3, (2S,5R)-1,6-Diazabicyclo[3.2.1]octane-2-carbonitrile-7-oxo-6-(sulfooxy)-monosodium Salt], the Kd in [12] was found to be 0.0019 ± 0.0002 µM; in assay [7] it was 0.029 ± 0.004 µM; in [9], 0.042 ± 0.006 µM; in [11], 0.053 ± 0.007 µM. In addition, the inhibition constant (Ki) in assay [12] came out at 0.32 ± 0.03 µM; in assay [7], 8 ± 1 µM; in assay [9] it was 5 ± 0.5 µM; in [11], 8 ± 0.8 µM. In [8], the “time for transfer from KPC-2 to TEM-1” value is on record as no more than 15 s.
Regarding `O=C(O)[C@H]1/C(=C/CO)O[C@@H]2CC(=O)N21` [clavulanic acid], the “turnover number (tn)” value in [13] was 2,500.
On to `C[C@@H](O)[C@H]1C(=O)N2C(C(=O)O)=C(S[C@@H]3CN[C@H](C(=O)N(C)C)C3)[C@H](C)[C@H]12` [meropenem], for which the MIC in assay [14] was less than 0.12 µg/mL; in [15] it was no less than 8 µg/mL; in [16] (setting [24]), less than 0.12 µg/mL; in assay [16] (setting [25]) it was less than 0.12 µg/mL; in assay [1] (setting [22]), 32 µg/mL (≈ 83.4 µM); in [2] (setting [23]) it was 256 µg/mL (≈ 668 µM). Besides, the minimal inhibitory concentration (MIC) was no less than 8 µg/mL in assay [17], less than 0.12 µg/mL in assay [18] and no less than 8 µg/mL in [19].
Consider `O=C(NNC(=O)[C@@H]1CC[C@@H]2CN1C(=O)N2OS(=O)(=O)O)[C@@H]1CCNC1` [Compound 1, (2S,5R)-6-Sulfooxy-7-oxo-2-[((3R)-pyrrolidine-3-carbonyl)hydrazinocarbonyl]-1,6-diazabicyclo[3.2.1]octane], for which the “lower Ki app values compared to those of avibactam and relebactam” value was 18–25 fold in assay [6] and 3–8 fold in assay [11]. Also, the Ki in assay [7] and in [9] was greater than 100 µM throughout. Besides, the “time required for transfer from KPC-2 to TEM-1” value in assay [8] stood at 5 min. The same compound came in with an MIC in assay [10] greater than 16 µg/mL.
Turning to `O.O=C(NC1CCNCC1)[C@@H]1CC[C@@H]2CN1C(=O)N2OS(=O)(=O)O` [relebactam], the Ki in assay [7] and in [9] was greater than 100 µM each time. Also, the “restoration of susceptibility to cefepime and meropenem” value in [10] (clinical isolates of Enterobacteriaceae expressing blaOXA-48 or mutants) was “less effective”.
Regarding `CO/N=C(\C(=O)N[C@@H]1C(=O)N2C(C(=O)[O-])=C(C[N+]3(C)CCCC3)CS[C@H]12)c1csc(N)n1` [cefepime], the MIC is less than 0.12 µg/mL in assay [14]; 0.5 µg/mL (≈ 1.04 µM) in assay [16] (setting [24]); less than 0.12 µg/mL in assay [16] (E. coli DHIOB pBC SIC (−) OXA-48); less than 0.12 µg/mL in assay [16] (setting [25]); 64 µg/mL (≈ 133 µM) in [2] (setting [23]); greater than 512 µg/mL in assay [20].
On to `C[C@]1(Cn2ccnn2)[C@H](C(=O)O)N2C(=O)C[C@H]2S1(=O)=O` [tazobactam], for which the Ki in assay [21] is 40 µM.

The values are drawn from PMC6131718 (Journal of medicinal chemistry, 2018).
